Measured values as given in patent US20240398771A1, “TREATMENT OF SCLERODERMA AND RAYNAUD'S SYNDROME” (Aisa Pharma, Inc., priority 2023, published 2024).

System: participants with SSc-RP
Experiment: Frequency of weekly symptomatic RP attacks (patient diary), Phase 2a Part A
Format: in vivo, human
Conditions: for Weekly Symptomatic RP Attacks, Max / Weekly Symptomatic RP Attacks, Mean (SD) / Weekly Symptomatic RP Attacks, Min / Weekly Symptomatic RP Attacks, Q1 / Weekly Symptomatic RP Attacks, Q3: last 7 days of dosing period
Description: Part A—Double-blind, Placebo-controlled, Parallel-group, Dose selection, will assess the safety and efficacy of two doses of cilnidipine (10 mg and 20 mg), alone and in combination with tadalafil. A total of 36 participants will be randomized to one of six pre-specified treatment arms. See Example 3 for data obtained in this phase of the study thus far, on 11 participants.
Please refer to FIG. 1 for treatment arms in Part A of the study. Dosing lasted or will last for 12 (±2) days in which participants self-administered or will self-administer daily doses of assigned treatment in the morning. Each participant took or will take one capsule and one tablet to blind the active therapy being received.
The relevant metrics measured by this tool daily are: • Study medication • SSc-RP symptoms (Reporting an attack including duration of attack) • Severity of the attack considering all symptoms of the attack e.g. tingling, numbness, pain, color changes (VAS 0-10 cm scale) • Participant's location at the time of the attack (inside home/outside home) • Selecting symptoms experienced during the attack (tingling, numbness, pain, color changes, other) • Pain rating during the attack (11-point Likert scale) • The RCS based on how much difficulty participants had with Raynaud's today, how many attacks the participant had, and how long they lasted. Participants will also be asked to consider how much pain, numbness, or other symptoms the Raynaud's caused in fingers (including painful sores), and how much the Raynaud's alone affected the use of hands today (VAS 0-10 cm scale).
Percent change from baseline evaluation for frequency of weekly RP attacks were or will be used as the primary efficacy variable. The sponsor-developed participant-informed diary will be used to record data. Frequency of weekly RP attacks is defined as the total number of RP attacks divided by the number of days with available diary data within the last 7 days of each dosing period then multiplied by 7. Total number of RP attacks during the last 7 days of screening period divided by the number of days with available data then multiplied by 7 will be used as baseline for the analysis of all periods.
Percentage change={(weekly RP attacks for the last 7 days of each dosing period−Baseline weekly RP attacks)/Baseline weekly RP attacks}*100%.
Absolute change=weekly RP attacks for the last 7 days of each dosing period−Baseline weekly RP attacks
Percent change from baseline evaluation for frequency of weekly RP attacks was and will be the primary efficacy endpoint. Frequency of weekly RP attacks is defined as the total number of RP attacks divided by the number of days with available diary data within the last 7 days of each dosing period then multiplied by 7. Total number of RP attacks during the last 7 days of screening period divided by the number of days with available data then multiplied by 7 will be used as baseline for the analysis of all periods.
The following data was actually obtained in accordance with the protocol and plan delineated in Examples 1 and 2. The accompanying data involved 11 patients out of the planned 76 patient study. The study was done in patients with scleroderma (systemic sclerosis) who had relatively frequent Raynaud symptoms as they needed to average at least one attack per day during a screening period of up to two weeks. In this first phase of this double-blind placebo-controlled, prospective randomized study, patients were treated in parallel and after meeting study criteria were randomized to receive either placebo, cilnidipine 10 mg daily, cilnidipine 20 mg daily, tadalafil 5 mg daily, cilnidipine 10 mg plus 5 mg of tadalafil, or cilnidipine 20 mg plus 5 mg of tadalafil.

[1] = Table A-1, ITT Part A, listed as Cilnidipine 10 mg
[2] = Table A-1, ITT Part A, listed as Cilnidipine 20 mg
[3] = Table A-1, ITT Part A, listed as Pooled Cilnidipine
[4] = Table A-1, ITT Part A, last 7 days of dosing vs last 7 days of screening, listed as Cilnidipine 10 mg
[5] = Table A-1, ITT Part A, last 7 days of dosing vs last 7 days of screening, listed as Cilnidipine 20 mg
[6] = Table A-1, ITT Part A, last 7 days of dosing vs last 7 days of screening, listed as Pooled Cilnidipine

## COCCOC(=O)C1=C(C)NC(C)=C(C(=O)OC/C=C/c2ccccc2)C1c1cccc([N+](=O)[O-])c1 (stereo not shown) [Cilnidipine, 1,4-dihydro-2,6-dimethyl,4-(3-nitrophenyl)-3,5-pyridinedicarboxylic acid 2-methoxyethyl (2 E)-3-phenyl-2-propenyl ester]
Example 3, first 11 patients of Part A, vs baseline
  weekly frequency of Raynaud attacks, direction of change: decrease
[1]
  Weekly Symptomatic RP Attacks, Max: 14.0, 14.0
  Weekly Symptomatic RP Attacks, Mean (SD): 14.00
  Weekly Symptomatic RP Attacks, Min: 14.0, 14.0
  Weekly Symptomatic RP Attacks, Q1: 14.00, 14.00
  Weekly Symptomatic RP Attacks, Q3: 14.00, 14.00
[2]
  Weekly Symptomatic RP Attacks, Max: 11.0
  Weekly Symptomatic RP Attacks, Mean (SD): 8.00 (4.243)
  Weekly Symptomatic RP Attacks, Min: 5.0
  Weekly Symptomatic RP Attacks, Q1: 5.00
  Weekly Symptomatic RP Attacks, Q3: 11.00
[3]
  Weekly Symptomatic RP Attacks, Max: 14.0
  Weekly Symptomatic RP Attacks, Mean (SD): 10.00 (4.583)
  Weekly Symptomatic RP Attacks, Min: 5.0
  Weekly Symptomatic RP Attacks, Q1: 5.00
  Weekly Symptomatic RP Attacks, Q3: 14.00
Table A-1, ITT Part A, last 7 days of dosing vs last 7 days of screening
  Weekly Symptomatic RP Attacks Percent Change from Baseline, Min: −33.3, −33.3%
[4]
  Weekly Symptomatic RP Attacks Change from Baseline, Max: −7.0, −7.0
  Weekly Symptomatic RP Attacks Change from Baseline, Mean (SD): −7.00
  Weekly Symptomatic RP Attacks Change from Baseline, Min: −7.0, −7.0
  Weekly Symptomatic RP Attacks Change from Baseline, Q1: −7.00, −7.00
  Weekly Symptomatic RP Attacks Change from Baseline, Q3: −7.00, −7.00
  Weekly Symptomatic RP Attacks Percent Change from Baseline, Max: −33.3, −33.3%
[5]
  Weekly Symptomatic RP Attacks Change from Baseline, Max: −2.0
  Weekly Symptomatic RP Attacks Change from Baseline, Mean (SD): −4.50 (3.536)
  Weekly Symptomatic RP Attacks Change from Baseline, Min: −7.0
  Weekly Symptomatic RP Attacks Change from Baseline, Q1: −7.00
  Weekly Symptomatic RP Attacks Change from Baseline, Q3: −2.00
  Weekly Symptomatic RP Attacks Percent Change from Baseline, Max: −28.6%
  Weekly Symptomatic RP Attacks Percent Change from Baseline, Min: −38.9%
[6]
  Weekly Symptomatic RP Attacks Change from Baseline, Max: −2.0
  Weekly Symptomatic RP Attacks Change from Baseline, Min: −7.0
  Weekly Symptomatic RP Attacks Change from Baseline, Q1: −7.00
  Weekly Symptomatic RP Attacks Change from Baseline, Q3: −2.00
  Weekly Symptomatic RP Attacks Percent Change from Baseline, Max: −28.6%
  Weekly Symptomatic RP Attacks Percent Change from Baseline, Min: −38.9%
  Weekly Symptomatic RP Attacks Percent Change from Baseline, Q3: −28.57%
